Measurements from patent US8653276B2 (SANOFI, priority 2008, dated 2014).
pIC50: −log10 of the molar value. Structures can show the parent of a compound that is named as a salt.

Columns and labels:
[1] = molecular target: T1, human GPR14 receptor (Homo sapiens, UniProt Q9UKP6); assay: cell-based
T1 sequence (Q9UKP6 1-389): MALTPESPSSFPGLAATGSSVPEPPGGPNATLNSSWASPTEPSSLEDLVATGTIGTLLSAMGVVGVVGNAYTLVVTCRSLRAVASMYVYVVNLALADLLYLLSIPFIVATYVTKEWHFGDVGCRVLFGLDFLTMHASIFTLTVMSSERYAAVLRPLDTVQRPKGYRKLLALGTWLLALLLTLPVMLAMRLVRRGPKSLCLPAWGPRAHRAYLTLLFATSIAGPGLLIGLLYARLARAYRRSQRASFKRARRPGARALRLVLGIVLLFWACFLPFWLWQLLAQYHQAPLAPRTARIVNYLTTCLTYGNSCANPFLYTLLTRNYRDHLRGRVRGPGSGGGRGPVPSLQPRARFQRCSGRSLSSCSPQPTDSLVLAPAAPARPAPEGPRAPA
Experimental: GPR14 is a 7-domain transmembrane receptor coupled to Gq. Its activation with a specific ligand causes an increase in Ca^2+ in the cell via the PLC (phospholipase C), IP3 (inositol-1,4,5-triphosphate) DAG (diacylglycerol) route.
The increase in Ca^2+ in the cell is measured using a Fluo4AM permeating probe (monoexcitation, monoemission probe) which binds to the free Ca^2+ and emits at 520 nm. The free probe is nonfluorescent in the absence of Ca^2+.
Experiment Plan • 1) Seeding of the cells on D-1 (day-1) or D-2 • 2) Incorporation/charge (D0) of the probe (1 h) • 3) Addition of the products to the FlipR and measurement • 4) Addition of the ligand to the FlipR and measurement in the presence of the products • 5) Processing and exportation of the data
The cells are cultured in whole medium in a T225 flask. For the experiments, the cells are subcultured in 200 μl of culture medium in transparent-bottomed black 96-well plates at a rate of 60 000 cells/well for a use on D+1 or 40 000 cells/well for a use on D+2.
Fluo-4AM is prepared at 20 mM and then divided into aliquots (50 μl) and stored at −20° C. sheltered from light. A solution of pluronic acid at 200 mg/ml in DMSO is also prepared (it keeps for one week at room temperature sheltered from light).
The cells are charged with the mixture of Fluo-4AM+pluronic acid (aliquots of 50 μl+50 μl of pluronic acid) diluted to 1/100 in the measuring buffer.
After washing the wells with 150 μl of measuring buffer (cf. appendix), the cells are then charged in the following manner: • distribution of 100 μl of measuring buffer into each well • addition of 10 μl of the Fluo-4AM+pluronic acid mixture diluted to 1/100.
The cells are incubated for 1 hour at 37° C. sheltered from light, in an incubator in the presence of 5% CO2.
The cells are then washed 3 times with 150 μl of measuring buffer to remove the excess probe. A volume of 150 μl of buffer is added to each well at the end of washing.
After incubating the plates for 20 minutes at room temperature sheltered from light, they are placed in the FlipR for the fluorescence measurement.
The basic level of incorporation of the Fluo-4 is checked for each plate (sd<10%) before the first injection.
After stabilizing the base signal, the GPR14 inhibitor compounds are injected via the FlipR in a volume of 50 μl using a dilution plate prepared with Biomek 2000 as measuring buffer.
The data are recorded continuously throughout the experiment.
For each plate, the base fluorescence before injection of the compounds is normalized via the “spatial uniformity correction” function of the FlipR. […] In each plate, a series of wells is treated with urotensin alone in the absence of inhibitor compound.
The percentage of inhibition for each concentration of product is calculated as described below: Inhibition(%)=100×(delta Uro II−delta product)/delta Uro II

Structure (SMILES) | pIC50 [1] | melting point [°C]
COC(=O)C1(NC(=O)c2ccc(-c3ccc(O)cc3C)c(-c3ccc(Cl)c(OCCCN(C)C)c3)n2)CCCCC1 (as salt: hydrochloride) [Compound 2, methyl 1-({[6-{4-chloro-3-[3-(dimethylamino)propoxy]phenyl}-5-(4-hydroxy-2-methylphenyl)pyridin-2-yl]carbonyl}amino)cyclohexanecarboxylate] | – | 270
COC(=O)C1(NC(=O)c2ccc(-c3cc(C4CC4)ccc3C)c(-c3ccc(Cl)c(OCCCN(C)C)c3)n2)CCCCC1 [Compound 7, methyl 1-({[6-{4-chloro-3-[3-(dimethylamino)propoxy]phenyl}-5-(5-cyclopropyl-2-methylphenyl)pyridin-2-yl]carbonyl}amino)cyclohexanecarboxylate] | 6.48 | –
COC(=O)C1(NC(=O)c2ccc(-c3ncc(C)cc3C)c(-c3ccc(Cl)c(OCCCN(C)C)c3)n2)CCCCC1 [Compound 13, methyl 1-{[(2′-{4-chloro-3-[3-(dimethylamino)propoxy]phenyl}-3,5-dimethyl-2,3′-bipyridin-6′-yl)carbonyl]amino}cyclohexanecarboxylate] | 6.07 | –
COC(=O)C1(NC(=O)c2ccc(-c3ncc(Cl)cc3Cl)c(-c3ccc(Cl)c(OCCCN(C)C)c3)n2)CCCCC1 [Compound 1, methyl 1-{[(3,5-dichloro-2′-{4-chloro-3-[3-(dimethylamino)propoxy]phenyl}-2,3′-bipyridin-6′-yl)carbonyl]amino}cyclohexanecarboxylate] | 5.80 | –
COC(=O)C1(NC(=O)c2ccc(-c3ncc(Cl)cc3Cl)c(-c3ccc(Cl)c(OCCCN(C)C)c3)n2)CCCCC1 (as salt: hydrochloride) [Compound 1, methyl 1-{[(3,5-dichloro-2′-{4-chloro-3-[3-(dimethylamino)propoxy]phenyl}-2,3′-bipyridin-6′-yl)carbonyl]amino}cyclohexanecarboxylate] | – | 168
Cc1ccccc1-c1ccc(C(=O)N[C@@H](CCO)C(C)(C)C)nc1-c1ccc(Cl)c(OCCCN(C)C)c1 (as salt: hydrochloride) | – | 93
COC(=O)C1(NC(=O)c2ccc(-c3cc4c(cc3C)OCO4)c(-c3ccc(Cl)c(OCCCN(C)C)c3)n2)CCCCC1 [Compound 11, methyl 1-({[6-{4-chloro-3-[3-(dimethylamino)propoxy]phenyl}-5-(6-methyl-1,3-benzodioxol-5-yl)pyridin-2-yl]carbonyl}amino)cyclohexanecarboxylate] | 6.25 | –
COC(=O)C1(NC(=O)c2ccc(-c3ccc(O)cc3C)c(-c3ccc(Cl)c(OCCCN(C)C)c3)n2)CCCCC1 [Compound 2, methyl 1-({[6-{4-chloro-3-[3-(dimethylamino)propoxy]phenyl}-5-(4-hydroxy-2-methylphenyl)pyridin-2-yl]carbonyl}amino)cyclohexanecarboxylate] | 5.77 | –
COC(=O)C1(NC(=O)c2ccc(-c3ncc(C)cc3Cl)c(-c3ccc(Cl)c(OCCCN(C)C)c3)n2)CCCCC1 [Compound 5, methyl 1-{[(3-chloro-2′-{4-chloro-3-[3-(dimethylamino)propoxy]phenyl}-5-methyl-2,3′-bipyridin-6′-yl)carbonyl]amino}cyclohexanecarboxylate] | 6.27 | –
COC(=O)C1(NC(=O)c2ccc(-c3ccccc3C)c(-c3ccc(Cl)c(OCCCN(C)C)c3)n2)CCCCC1 (as salt: hydrochloride) [Compound 4, methyl 1-({[6-{4-chloro-3-[3-(dimethylamino)propoxy]phenyl}-5-(2-methylphenyl)pyridin-2-yl]carbonyl}amino)cyclohexanecarboxylate] | – | 115
CCCOc1ccc(Cl)c(-c2ccc(C(=O)NC3(C(=O)OC)CCCCC3)nc2-c2ccc(Cl)c(OCCCN(C)C)c2)c1 [Compound 9, methyl 1-({[6-{4-chloro-3-[3-(dimethylamino)propoxy]phenyl}-5-(2-chloro-5-propoxyphenyl)pyridin-2-yl]carbonyl}amino)cyclohexanecarboxylate] | 5.85 | –
COC(=O)C1(NC(=O)c2ccc(-c3ccccc3C)c(-c3ccc(Cl)c(OCCCN(C)C)c3)n2)CCCCC1 [Compound 4, methyl 1-({[6-{4-chloro-3-[3-(dimethylamino)propoxy]phenyl}-5-(2-methylphenyl)pyridin-2-yl]carbonyl}amino)cyclohexanecarboxylate] | 6.20 | –

The remaining lines, values ahead:

pIC50 [1] | melting point [°C] | Structure (SMILES)
6.94 | – | COC(=O)C1(NC(=O)c2cnc(-c3ccc(C)cc3C)c(-c3ccc(Cl)c(OCCCN(C)C)c3)n2)CCCCC1 [Compound 20, methyl 1-({[6-{4-chloro-3-[3-(dimethylamino)propoxy]phenyl}-5-(2,4-dimethylphenyl)pyrazin-2-yl]carbonyl}amino)cyclohexanecarboxylate]
– | 135 | COC(=O)C1(NC(=O)c2ccc(-c3ccccc3Cl)c(-c3ccc(Cl)c(OCCCN(C)C)c3)n2)C2CC3CC(C2)CC1C3 (stereo not shown) (as salt: hydrochloride) [Compound 26, methyl 2-({[6-{4-chloro-3-[3-(dimethylamino)propoxy]phenyl}-5-(2-chlorophenyl)pyridin-2-yl]carbonyl}amino)adamantane-2-carboxylate]
– | 118 | COC(=O)C1(NC(=O)c2cnc(-c3ccc(C)cc3C)c(-c3ccc(Cl)c(OCCCN(C)C)c3)n2)CCCCC1 (as salt: hydrochloride) [Compound 20, methyl 1-({[6-{4-chloro-3-[3-(dimethylamino)propoxy]phenyl}-5-(2,4-dimethylphenyl)pyrazin-2-yl]carbonyl}amino)cyclohexanecarboxylate]
– | 90 | CCOC(=O)C[C@H](NC(=O)c1ccc(-c2ccccc2C)c(-c2ccc(Cl)c(OCCCN(C)C)c2)n1)C(C)(C)C (as salt: hydrochloride) [Compound 29, ethyl(3S)-3-({[6-{4-chloro-3-[3-(dimethylamino)propoxy]phenyl}-5-(2-methylphenyl)pyridin-2-yl]carbonyl}amino)-4,4-dimethylpentanoate]
– | 152 | CNC(=O)C[C@H](NC(=O)c1ccc(-c2ccccc2C)c(-c2ccc(Cl)c(OCCCN(C)C)c2)n1)C(C)(C)C (as salt: hydrochloride) [Compound 33, 6-{4-chloro-3-[3-(dimethylamino)propoxy]phenyl}-N-{(1S)-2,2-dimethyl-1-[2-(methylamino)-2-oxoethyl]propyl}-5-(2-methylphenyl)pyridine-2-carboxamide]
6.77 | – | COC(=O)C1(NC(=O)c2ccc(-c3ccccc3Cl)c(-c3ccc(Cl)c(OCCCN(C)C)c3)n2)C2CC3CC(C2)CC1C3 (stereo not shown) [Compound 26, methyl 2-({[6-{4-chloro-3-[3-(dimethylamino)propoxy]phenyl}-5-(2-chlorophenyl)pyridin-2-yl]carbonyl}amino)adamantane-2-carboxylate]
– | 158 | COC(=O)C1(NC(=O)c2ccc(-n3nc(C)cc3C)c(-c3ccc(Cl)c(OCCCN(C)C)c3)n2)CCCCC1 (as salt: hydrochloride) [Compound 18, methyl 1-({[6-{4-chloro-3-[3-(dimethylamino)propoxy]phenyl}-5-(3,5-dimethyl-1H-pyrazol-1-yl)pyridin-2-yl]carbonyl}amino)cyclohexanecarboxylate]
6.18 | – | COC(=O)[C@]1(NC(=O)c2ccc(-c3ncc(C)cc3Cl)c(-c3ccc(Cl)c(OCCCN(C)C)c3)n2)CC[C@@H](O)CC1 [Compound 44, methyl cis-1-{[(3-chloro-2′-{4-chloro-3-[3-(dimethylamino)propoxy]phenyl}-5-methyl-2,3′-bipyridin-6′-yl)carbonyl]amino}-4-hydroxycyclohexanecarboxylate]
6.60 | – | CCOC(=O)C[C@H](NC(=O)c1ccc(-c2ccccc2C)c(-c2ccc(Cl)c(OCCCN(C)C)c2)n1)C(C)(C)C [Compound 29, ethyl(3S)-3-({[6-{4-chloro-3-[3-(dimethylamino)propoxy]phenyl}-5-(2-methylphenyl)pyridin-2-yl]carbonyl}amino)-4,4-dimethylpentanoate]
5.97 | – | COC(=O)C1(NC(=O)c2ccc(-n3nc(C)cc3C)c(-c3ccc(Cl)c(OCCCN(C)C)c3)n2)CCCCC1 [Compound 18, methyl 1-({[6-{4-chloro-3-[3-(dimethylamino)propoxy]phenyl}-5-(3,5-dimethyl-1H-pyrazol-1-yl)pyridin-2-yl]carbonyl}amino)cyclohexanecarboxylate]
6.99 | – | CCOc1ccc(Cl)c(-c2ncc(C(=O)N[C@@H](CC(=O)OC)C(C)(C)C)nc2-c2ccc(Cl)c(OCCCN(C)C)c2)c1 [Compound 24, methyl(3S)-3-({[6-{4-chloro-3-[3-(dimethylamino)propoxy]phenyl}-5-(2-chloro-5-ethoxyphenyl)pyrazin-2-yl]carbonyl}amino)-4,4-dimethylpentanoate]
7.02 | – | COC(=O)[C@]1(NC(=O)c2ccc(-c3ccccc3C)c(-c3ccc(Cl)c(OCCCN(C)C)c3)n2)CC[C@@H](O)CC1 [Compound 42, methyl cis-1-({[6-{4-chloro-3-[3-(dimethylamino)propoxy]phenyl}-5-(2-methylphenyl)pyridin-2-yl]carbonyl}amino)-4-hydroxycyclohexanecarboxylate]
6.35 | – | CNC(=O)C[C@H](NC(=O)c1ccc(-c2ccccc2C)c(-c2ccc(Cl)c(OCCCN(C)C)c2)n1)C(C)(C)C [Compound 33, 6-{4-chloro-3-[3-(dimethylamino)propoxy]phenyl}-N-{(1S)-2,2-dimethyl-1-[2-(methylamino)-2-oxoethyl]propyl}-5-(2-methylphenyl)pyridine-2-carboxamide]
